Reference: US6914045B2, “Glycopeptide antibiotics” (Wyeth Holdings Corporation, priority 2001, dated 2005)
Values after ≈ are worked out from the molar mass of the structure shown.

What was measured:
Assay in all cases: in vitro antibacterial evaluation, MIC by broth dilution
Type in all cases: cell-based
Enterococcus sp. = conditions: broth dilution, 18 hours at 35° C.
Method in brief: (§1)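 Step 1: dilute antibiotic across 64-0.06 μg/mL in Muller-Hinton II […]. Step 2: inoculate at 5×10^5 CFU/mL.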

Escherichia coli = conditions: 18 hours at 35° C.
Method in brief: as §1

Staphylococcus sp. = tested on: Staphylococcus sp.
Method in brief: as §1

Streptococcus sp. = conditions: broth dilution, 18 hours at 35° C.
Method in brief: as §1

[1] = Enterococcus faecalis (ATCC 29212)
[2] = broth dilution, 18 hours at 35° C.
[3] = broth dilution, 18 hours at 35° C.; strain GC 4547
[4] = Enterococcus faecalis (GC 2242)
[5] = Enterococcus faecalis (GC 4552)
[6] = broth dilution, 18 hours at 35° C.; strain GC 4537
[7] = broth dilution, 18 hours at 35° C.; strain GC 4538
[8] = strain ATCC 29213; broth dilution, 18 hours at 35° C.
[9] = strain GC 1131; broth dilution, 18 hours at 35° C.
[10] = strain GC 4535; broth dilution, 18 hours at 35° C.
[11] = strain GC 4536; broth dilution, 18 hours at 35° C.

SMILES: CC(C)CC(=O)OC1C(OC2C(CO)OC(Oc3ccc(CC4NC(=O)C(C(C)c5cccs5)NC(=O)CNC(=O)C(CO)NC(=O)C(C(O)C5CNC(=N)N5C5OC(CO)C(O)C(O)C5O)NC(=O)C(C(O)C5CNC(=N)N5)NC4=O)cc3)C(O)C2O)OC(CO)C(O)C1O (centres unmarked) [Example 265a, Cyclo[3-(2-thienyl)-2-aminobutanoyl-O-[4-O-[2-O-(3-methylbutanoyl)hexopyranosyl]hexopyranosyl]tyrosyl-3-(2-iminoimidazolidin-4-yl)seryl-3-(3-hexopyranosyl-2-iminoimidazolidin-4-yl)serylserylglycyl]]
- MIC Enterococcus avium (GC 4558) (Enterococcus sp.; Enterococcus avium (GC 4558)): 64 µg/mL (≈ 46.2 µM)
- MIC Enterococcus faecalis (ATCC 29212) (Enterococcus sp.; [1]): 64 µg/mL (≈ 46.2 µM)
- MIC Enterococcus faecalis (GC 4553) (Enterococcus sp.; Enterococcus faecalis (GC 4553)): >64 µg/mL
- MIC Enterococcus faecalis (GC 4554) (Enterococcus sp.; Enterococcus faecalis (GC 4554)): >64 µg/mL
- MIC Enterococcus faecium (GC 2243) (Enterococcus sp.; Enterococcus faecium (GC 2243)): >64 µg/mL
- MIC Enterococcus faecium (GC 4556) (Enterococcus sp.; Enterococcus faecium (GC 4556)): 64 µg/mL (≈ 46.2 µM)
- MIC Enterococcus faecium (GC 4557) (Enterococcus sp.; Enterococcus faecium (GC 4557)): 8 µg/mL (≈ 5.77 µM)
- MIC Enterococcus faecalis (ATCC 29212) (Enterococcus sp.; strain ATCC 29212): 64 µg/mL (≈ 46.2 µM)
- MIC Enterococcus faecalis (GC 2242) (Enterococcus sp.; strain GC 2242): 64 µg/mL (≈ 46.2 µM)
- MIC Enterococcus faecium (GC 2243) (Enterococcus sp.; strain GC 2243): >64 µg/mL
- MIC Enterococcus faecalis (GC 4552) (Enterococcus sp.; strain GC 4552): >64 µg/mL
- MIC Enterococcus faecalis (GC 4553) (Enterococcus sp.; strain GC 4553): >64 µg/mL
- MIC Enterococcus faecalis (GC 4554) (Enterococcus sp.; strain GC 4554): >64 µg/mL
- MIC Enterococcus faecium (GC 4556) (Enterococcus sp.; strain GC 4556): 64 µg/mL (≈ 46.2 µM)
- MIC Enterococcus faecium (GC 4557) (Enterococcus sp.; strain GC 4557): 8 µg/mL (≈ 5.77 µM)
- MIC Enterococcus avium (GC 4558) (Enterococcus sp.; strain GC 4558): 64 µg/mL (≈ 46.2 µM)
- MIC Escherichia coli (ATCC 25922) (Escherichia coli; Escherichia coli (ATCC 25922)): >64 µg/mL
- MIC Escherichia coli (GC 4559) (Escherichia coli; Escherichia coli (GC 4559)): >64 µg/mL
- MIC Escherichia coli (GC 4560) (Escherichia coli; Escherichia coli (GC 4560)): 4 µg/mL (≈ 2.89 µM)
- MIC Coagulase Negative Staphylococcus (GC 4547) (Staphylococcus sp.; [2]): 8 µg/mL (≈ 5.77 µM)
- MIC Coagulase Negative Staphylococcus (GC 4548) (Staphylococcus sp.; [2]): 8 µg/mL (≈ 5.77 µM)
- MIC Coagulase Negative Staphylococcus (GC 4549) (Staphylococcus sp.; [2]): 4 µg/mL (≈ 2.89 µM)
- MIC Coagulase Negative Staphylococcus (GC 4551) (Staphylococcus sp.; [2]): 8 µg/mL (≈ 5.77 µM)
- MIC Staphylococcus aureus (ATCC 29213) (Staphylococcus sp.; [2]): 16 µg/mL (≈ 11.5 µM)
- MIC Staphylococcus aureus (GC 1131) (Staphylococcus sp.; [2]): 32 µg/mL (≈ 23.1 µM)
- MIC Staphylococcus aureus (GC 4541) (Staphylococcus sp.; [2]): 16 µg/mL (≈ 11.5 µM)
- MIC Staphylococcus aureus (GC 4542) (Staphylococcus sp.; [2]): 16 µg/mL (≈ 11.5 µM)
- MIC Staphylococcus aureus (GC 4544) (Staphylococcus sp.; [2]): 8 µg/mL (≈ 5.77 µM)
- MIC Staphylococcus aureus (GC 4545) (Staphylococcus sp.; [2]): 16 µg/mL (≈ 11.5 µM)
- MIC Staphylococcus aureus-SMITH (GC 4543) (Staphylococcus sp.; [2]): 8 µg/mL (≈ 5.77 µM)
- MIC Staphylococcus haemolyticus (GC 4546) (Staphylococcus sp.; [2]): 8 µg/mL (≈ 5.77 µM)
- MIC Staphylococcus aureus (ATCC 29213) (Staphylococcus sp.; broth dilution, 18 hours at 35° C.; strain ATCC 29213): 16 µg/mL (≈ 11.5 µM)
- MIC Staphylococcus aureus (GC 1131) (Staphylococcus sp.; broth dilution, 18 hours at 35° C.; strain GC 1131): 32 µg/mL (≈ 23.1 µM)
- MIC Staphylococcus aureus (GC 4541) (Staphylococcus sp.; broth dilution, 18 hours at 35° C.; strain GC 4541): 16 µg/mL (≈ 11.5 µM)
- MIC Staphylococcus aureus (GC 4542) (Staphylococcus sp.; broth dilution, 18 hours at 35° C.; strain GC 4542): 16 µg/mL (≈ 11.5 µM)
- MIC Staphylococcus aureus (GC 4544) (Staphylococcus sp.; broth dilution, 18 hours at 35° C.; strain GC 4544): 8 µg/mL (≈ 5.77 µM)
- MIC Staphylococcus aureus (GC 4545) (Staphylococcus sp.; broth dilution, 18 hours at 35° C.; strain GC 4545): 16 µg/mL (≈ 11.5 µM)
- MIC Staphylococcus haemolyticus (GC 4546) (Staphylococcus sp.; broth dilution, 18 hours at 35° C.; strain GC 4546): 8 µg/mL (≈ 5.77 µM)
- MIC Coagulase Negative Staphylococcus (GC 4547) (Staphylococcus sp.; [3]): 8 µg/mL (≈ 5.77 µM)
- MIC Coagulase Negative Staphylococcus (GC 4548) (Staphylococcus sp.; broth dilution, 18 hours at 35° C.; strain GC 4548): 8 µg/mL (≈ 5.77 µM)
- MIC Coagulase Negative Staphylococcus (GC 4549) (Staphylococcus sp.; broth dilution, 18 hours at 35° C.; strain GC 4549): 4 µg/mL (≈ 2.89 µM)
- MIC Coagulase Negative Staphylococcus (GC 4551) (Staphylococcus sp.; broth dilution, 18 hours at 35° C.; strain GC 4551): 8 µg/mL (≈ 5.77 µM)
- MIC Staphylococcus aureus-SMITH (GC 4543) (Staphylococcus sp.; broth dilution, 18 hours at 35° C.; strain SMITH GC 4543): 8 µg/mL (≈ 5.77 µM)
- MIC Streptococcus agalactiae (GC 4564) (Streptococcus sp.; strain GC 4564): 4 µg/mL (≈ 2.89 µM)
- MIC Streptococcus pyogenes (ID-3187) (Streptococcus sp.; strain ID-3187): 4 µg/mL (≈ 2.89 µM)

SMILES: CC(c1ccccc1)C1NC(=O)CNC(=O)C(CO)NC(=O)C(C(O)C2CNC(=N)N2C2OC(CO)C(O)C(O)C2O)NC(=O)C(C(O)C2CNC(=N)N2)NC(=O)C(Cc2ccc(OC3OC(COC(=O)CCC4CCCC4)C(OC4OC(CO)C(O)C(O)C4O)C(O)C3O)cc2)NC1=O (centres unmarked) [Example 100b]
- MIC Enterococcus faecalis (ATCC 29212) (Enterococcus sp.; [1]): 8 µg/mL (≈ 5.64 µM)
- MIC Enterococcus faecalis (GC 2242) (Enterococcus sp.; [4]): 8 µg/mL (≈ 5.64 µM)
- MIC Enterococcus faecalis (GC 4552) (Enterococcus sp.; [5]): 8 µg/mL (≈ 5.64 µM)
- MIC Enterococcus faecalis (ATCC 29212) (Enterococcus sp.; strain ATCC 29212): 8 µg/mL (≈ 5.64 µM)
- MIC Enterococcus faecalis (GC 2242) (Enterococcus sp.; strain GC 2242): 8 µg/mL (≈ 5.64 µM)
- MIC Enterococcus faecalis (GC 4552) (Enterococcus sp.; strain GC 4552): 8 µg/mL (≈ 5.64 µM)
- MIC Escherichia coli (GC 4559) (Escherichia coli; strain GC 4559): >128 µg/mL
- MIC Escherichia coli (GC 4560) (Escherichia coli; strain GC 4560): 0.5 µg/mL (≈ 0.352 µM)
- MIC Coagulase Negative Staphylococcus (GC 4537) (Staphylococcus sp.; [2]): 2 µg/mL (≈ 1.41 µM)
- MIC Coagulase Negative Staphylococcus (GC 4538) (Staphylococcus sp.; [2]): 1 µg/mL (≈ 0.704 µM)
- MIC Coagulase Negative Staphylococcus (GC 4547) (Staphylococcus sp.; [2]): 1 µg/mL (≈ 0.704 µM)
- MIC Staphylococcus aureus (ATCC 29213) (Staphylococcus sp.; [2]): 2 µg/mL (≈ 1.41 µM)
- MIC Staphylococcus aureus (GC 1131) (Staphylococcus sp.; [2]): 2 µg/mL (≈ 1.41 µM)
- MIC Staphylococcus aureus (GC 4535) (Staphylococcus sp.; [2]): 2 µg/mL (≈ 1.41 µM)
- MIC Staphylococcus aureus-SMITH (GC 4536) (Staphylococcus sp.; [2]): 2 µg/mL (≈ 1.41 µM)
- MIC Coagulase Negative Staphylococcus (GC 4537) (Staphylococcus sp.; [6]): 2 µg/mL (≈ 1.41 µM)
- MIC Coagulase Negative Staphylococcus (GC 4538) (Staphylococcus sp.; [7]): 1 µg/mL (≈ 0.704 µM)
- MIC Coagulase Negative Staphylococcus (GC 4547) (Staphylococcus sp.; [3]): 1 µg/mL (≈ 0.704 µM)
- MIC Staphylococcus aureus (ATCC 29213) (Staphylococcus sp.; [8]): 2 µg/mL (≈ 1.41 µM)
- MIC Staphylococcus aureus (GC 1131) (Staphylococcus sp.; [9]): 2 µg/mL (≈ 1.41 µM)
- MIC Staphylococcus aureus (GC 4535) (Staphylococcus sp.; [10]): 2 µg/mL (≈ 1.41 µM)
- MIC Staphylococcus aureus-SMITH (GC 4536) (Staphylococcus sp.; [11]): 2 µg/mL (≈ 1.41 µM)

SMILES: CC(c1ccccc1)C1NC(=O)CNC(=O)C(CO)NC(=O)C(C(O)C2CNC(=N)N2C2OC(CO)C(O)C(O)C2O)NC(=O)C(C(O)C2CNC(=N)N2)NC(=O)C(Cc2ccc(OC3OC(CO)C(OC4OC(COC(=O)CCC5CCCC5)C(O)C(O)C4O)C(O)C3O)cc2)NC1=O (centres unmarked) [Example 100c]
- MIC Enterococcus faecalis (ATCC 29212) (Enterococcus sp.; [1]): 4 µg/mL (≈ 2.82 µM)
- MIC Enterococcus faecalis (GC 2242) (Enterococcus sp.; [4]): 2 µg/mL (≈ 1.41 µM)
- MIC Enterococcus faecalis (GC 4552) (Enterococcus sp.; [5]): 4 µg/mL (≈ 2.82 µM)
- MIC Enterococcus faecalis (ATCC 29212) (Enterococcus sp.; strain ATCC 29212): 4 µg/mL (≈ 2.82 µM)
- MIC Enterococcus faecalis (GC 2242) (Enterococcus sp.; strain GC 2242): 2 µg/mL (≈ 1.41 µM)
- MIC Enterococcus faecalis (GC 4552) (Enterococcus sp.; strain GC 4552): 4 µg/mL (≈ 2.82 µM)
- MIC Escherichia coli (GC 4559) (Escherichia coli; strain GC 4559): 32 µg/mL (≈ 22.5 µM)
- MIC Escherichia coli (GC 4560) (Escherichia coli; strain GC 4560): 0.5 µg/mL (≈ 0.352 µM)
- MIC Coagulase Negative Staphylococcus (GC 4537) (Staphylococcus sp.; [2]): 1 µg/mL (≈ 0.704 µM)
- MIC Coagulase Negative Staphylococcus (GC 4538) (Staphylococcus sp.; [2]): 1 µg/mL (≈ 0.704 µM)
- MIC Coagulase Negative Staphylococcus (GC 4547) (Staphylococcus sp.; [2]): 1 µg/mL (≈ 0.704 µM)
- MIC Staphylococcus aureus (ATCC 29213) (Staphylococcus sp.; [2]): 1 µg/mL (≈ 0.704 µM)
- MIC Staphylococcus aureus (GC 1131) (Staphylococcus sp.; [2]): 1 µg/mL (≈ 0.704 µM)
- MIC Staphylococcus aureus (GC 4535) (Staphylococcus sp.; [2]): 1 µg/mL (≈ 0.704 µM)
- MIC Staphylococcus aureus-SMITH (GC 4536) (Staphylococcus sp.; [2]): 1 µg/mL (≈ 0.704 µM)
- MIC Coagulase Negative Staphylococcus (GC 4537) (Staphylococcus sp.; [6]): 1 µg/mL (≈ 0.704 µM)
- MIC Coagulase Negative Staphylococcus (GC 4538) (Staphylococcus sp.; [7]): 1 µg/mL (≈ 0.704 µM)
- MIC Coagulase Negative Staphylococcus (GC 4547) (Staphylococcus sp.; [3]): 1 µg/mL (≈ 0.704 µM)
- MIC Staphylococcus aureus (ATCC 29213) (Staphylococcus sp.; [8]): 1 µg/mL (≈ 0.704 µM)
- MIC Staphylococcus aureus (GC 1131) (Staphylococcus sp.; [9]): 1 µg/mL (≈ 0.704 µM)
- MIC Staphylococcus aureus (GC 4535) (Staphylococcus sp.; [10]): 1 µg/mL (≈ 0.704 µM)
- MIC Staphylococcus aureus-SMITH (GC 4536) (Staphylococcus sp.; [11]): 1 µg/mL (≈ 0.704 µM)
